Source: article PMC8286840, “Identifying SARS-CoV-2 antiviral compounds by screening for small molecule inhibitors of Nsp3 papain-like protease” (Biochemical Journal, 2021)
Where a name gives a salt, the structure may show the parent alone. Read-outs that look alike come from different tables or passages of the source.

Experiments:
[1] = target: T1, SARS-CoV-2 PLpro (nsp3 1564–1878) (Severe acute respiratory syndrome coronavirus 2, UniProt P0DTD1); experiment: biochemical; design: FRET-quenched peptide (Pro3) cleavage by PLpro, 10 min pre-incubation, slope over 20 min, normalised to no-compound control; settings: high concentration screen, read-out: % of control remaining
[2] = target: T1, SARS-CoV-2 PLpro (nsp3 1564–1878); experiment: biochemical; design: FRET-quenched peptide (Pro3) cleavage by PLpro, 10 min pre-incubation, slope over 20 min, normalised to no-compound control; settings: low concentration screen, read-out: % of control remaining

CCCCCCCCCCCCC(=O)N1CCCCC1CNC(=O)[C@@H](N)CCCCN (stereo partly drawn) [NPC-15437 dihydrochloride]
remaining activity at 3.75 µM ([1]; Well no.=1132): 95.6%
remaining activity at 1.25 µM ([2]; Well no.=1132): 94%

CN(C)C(=O)c1ccc(S(=O)(=O)c2ccc(NC(=O)[C@@](C)(O)C(F)(F)F)c(Cl)c2)cc1 [AZD7545]
remaining activity at 3.75 µM ([1]; Well no.=8528): 98.2%
remaining activity at 1.25 µM ([2]; Well no.=8528): 101%

O=C(O)CCCN1CCC(O[C@@H](c2ccc(Cl)cc2)c2ccccn2)CC1 [Bepotastine Besilate]
remaining activity at 3.75 µM ([1]; Well no.=5267): 91.2%
remaining activity at 1.25 µM ([2]; Well no.=5267): 91.9%

CN1Cc2c(N)cccc2C(c2ccccc2)C1 (stereo not drawn) [Nomifensine maleate]
remaining activity at 3.75 µM ([1]; Well no.=1139): 96.7%
remaining activity at 1.25 µM ([2]; Well no.=1139): 94.1%

COc1ccc(/C=C/C(=O)Nc2ccccc2C(=O)O)cc1OC [Tranilast]
remaining activity at 3.75 µM ([1]; Well no.=1519): 94.6%
remaining activity at 3.75 µM ([1]; Well no.=1807): 96.1%
remaining activity at 3.75 µM ([1]; Well no.=6317): 97.4%
remaining activity at 1.25 µM ([2]; Well no.=1519): 95.4%
remaining activity at 1.25 µM ([2]; Well no.=1807): 96.3%
remaining activity at 1.25 µM ([2]; Well no.=6317): 104%

CCCCOc1ccc(C(=O)Nc2ccc(F)cc2F)cc1 [VU 0357121]
remaining activity at 3.75 µM ([1]; Well no.=4932): 98.8%
remaining activity at 3.75 µM ([1]; Well no.=7857): 107%
remaining activity at 1.25 µM ([2]; Well no.=4932): 99.8%
remaining activity at 1.25 µM ([2]; Well no.=7857): 105%

OC[C@H]1OC(O)[C@H](O)[C@@H](O)[C@@H]1O (stereo partly drawn) [Dextrose]
remaining activity at 3.75 µM ([1]; Well no.=6497): 99.3%
remaining activity at 1.25 µM ([2]; Well no.=6497): 97.3%

COc1cc(OC)cc(-c2cc3cnc(N)nc3nc2NC(=O)NC(C)(C)C)c1 [PD-166866]
remaining activity at 3.75 µM ([1]; Well no.=5912): 96.7%
remaining activity at 1.25 µM ([2]; Well no.=5912): 96.4%

COC(=O)c1cnn(-c2ccc(F)cc2F)c1/C=N/NC(=S)NC(C)(C)C [ML194]
remaining activity at 3.75 µM ([1]; Well no.=5766): 95.8%
remaining activity at 1.25 µM ([2]; Well no.=5766): 99.4%

Nc1ncnc2c1ncn2[C@@H]1O[C@H](CO)[C@@H](O)[C@H]1O [Adenosine]
remaining activity at 3.75 µM ([1]; Well no.=200): 95.6%
remaining activity at 3.75 µM ([1]; Well no.=6301): 102%
remaining activity at 3.75 µM ([1]; Well no.=8048): 88.7%
remaining activity at 1.25 µM ([2]; Well no.=200): 94%
remaining activity at 1.25 µM ([2]; Well no.=6301): 105%
remaining activity at 1.25 µM ([2]; Well no.=8048): 87.9%

Cc1cn([C@H]2O[C@@H](CO)[C@H](O)[C@H]2F)c(=O)[nH]c1=O [Clevudine]
remaining activity at 3.75 µM ([1]; Well no.=8012): 100%
remaining activity at 3.75 µM ([1]; Well no.=8342): 91.2%
remaining activity at 1.25 µM ([2]; Well no.=8012): 98%
remaining activity at 1.25 µM ([2]; Well no.=8342): 92.4%

O=S(=O)(c1cccc2cnccc12)N1CCNCC1 [HA-100]
remaining activity at 3.75 µM ([1]; Well no.=478): 101%
remaining activity at 1.25 µM ([2]; Well no.=478): 102%

O=C(O)C(Cl)Cl [Sodium dichloroacetate (DCA)]
remaining activity at 3.75 µM ([1]; Well no.=8490): 96.1%
remaining activity at 1.25 µM ([2]; Well no.=8490): 96.6%

C[C@@H]1C/C=C/C=C/C=C/C=C/[C@H](O[C@@H]2O[C@H](C)[C@@H](O)[C@H](N)[C@@H]2O)C[C@@H]2O[C@](O)(C[C@@H](O)C[C@H]3O[C@@H]3/C=C/C(=O)O1)C[C@H](O)[C@H]2C(=O)O [Pimaricin]
remaining activity at 3.75 µM ([1]; Well no.=3703): 102%
remaining activity at 1.25 µM ([2]; Well no.=3703): 96.5%

CC1(C)C[C@@H]1C(=O)N/C(=C\CCCCSC[C@H](N)C(=O)O)C(=O)O [Cilastatin]
remaining activity at 3.75 µM ([1]; Well no.=2198): 95.6%
remaining activity at 1.25 µM ([2]; Well no.=2198): 94.3%

Clc1cccc(Cl)c1NC1=NCCN1 [Clonidine (hydrochloride)]
remaining activity at 3.75 µM ([1]; Well no.=6755): 98.3%
remaining activity at 1.25 µM ([2]; Well no.=6755): 99.8%

Nc1nonc1C(=Nc1ccc(F)c(Br)c1)NO [IDO-IN-1]
remaining activity at 3.75 µM ([1]; Well no.=8359): 99.9%
remaining activity at 1.25 µM ([2]; Well no.=8359): 99.2%

CCc1nc(-c2cccc(C)c2)c(-c2ccnc(NC(=O)c3ccccc3)c2)s1 [TAK-715]
remaining activity at 3.75 µM ([1]; Well no.=2751): 104%
remaining activity at 1.25 µM ([2]; Well no.=2751): 99.2%

C[N+](C)(C)C[C@H](O)CC(=O)[O-] [L-carnitine]
remaining activity at 3.75 µM ([1]; Well no.=8100): 104%
remaining activity at 1.25 µM ([2]; Well no.=8100): 106%

CCN1CCc2nc(N)oc2CC1 [B-HT 933 dihydrochloride]
remaining activity at 3.75 µM ([1]; Well no.=87): 105%
remaining activity at 1.25 µM ([2]; Well no.=87): 102%

Clc1ccc(N2C[C@H]3CC[C@@H](C2)N3)nn1 [DBO-83]
remaining activity at 3.75 µM ([1]; Well no.=630): 98.1%
remaining activity at 1.25 µM ([2]; Well no.=630): 63.4%

C=C1[C@H]2C[C@@]3([C@@H]1O)[C@@H](CC2=O)[C@]12[C@@H]4C[C@H]3[C@H]1N(CC)C[C@]4(C)CC[C@@H]2O [Songorine]
remaining activity at 3.75 µM ([1]; Well no.=3203): 102%
remaining activity at 1.25 µM ([2]; Well no.=3203): 102%

C#C[C@]1(O)CC[C@H]2[C@@H]3CCC4=CC(=O)CC[C@@H]4[C@H]3CC[C@@]21CC [Levonorgestrel]
remaining activity at 3.75 µM ([1]; Well no.=2262): 102%
remaining activity at 1.25 µM ([2]; Well no.=2262): 93.9%

Nc1ncnc2c1ccn2[C@@H]1O[C@H](CO)[C@@H](O)[C@H]1O [Tubercidin]
remaining activity at 3.75 µM ([1]; Well no.=8060): 95.7%
remaining activity at 1.25 µM ([2]; Well no.=8060): 96.1%

N[C@@H]1C[C@H]1c1ccccc1 (racemic) [Tranylcypromine]
remaining activity at 3.75 µM ([1]; Well no.=1564): 95.7%
remaining activity at 1.25 µM ([2]; Well no.=1564): 95.7%

COC(=O)N(C)c1c(N)nc(-c2nn(Cc3ccccc3F)c3ncccc23)nc1N [Riociguat]
remaining activity at 3.75 µM ([1]; Well no.=6654): 108%
remaining activity at 1.25 µM ([2]; Well no.=6654): 107%

NCCC[C@](N)(C(=O)O)C(F)F (racemic) [DL-alpha-Difluoromethylornithine hydrochloride]
remaining activity at 3.75 µM ([1]; Well no.=500): 104%
remaining activity at 1.25 µM ([2]; Well no.=500): 103%

Cc1sc(C)c(C(=O)NC2(c3ccc(C(=O)O)cc3)CC2)c1Cc1ccc(C(F)(F)F)cc1 [MK-2894]
remaining activity at 3.75 µM ([1]; Well no.=7101): 90.7%
remaining activity at 1.25 µM ([2]; Well no.=7101): 94.3%

CC(C)C[C@H]1C(=O)N2CCC[C@H]2[C@]2(O)O[C@](NC(=O)[C@@H]3C=C4c5cccc6[nH]c(Br)c(c56)C[C@H]4N(C)C3)(C(C)C)C(=O)N12 [Bromocriptine (mesylate)]
remaining activity at 3.75 µM ([1]; Well no.=6891): 96.2%
remaining activity at 1.25 µM ([2]; Well no.=6891): 97.5%

COc1ccc(S(=O)(=O)Nc2ccccc2CN(C)C/C=C/c2ccc(Cl)cc2)cc1 [KN-92]
remaining activity at 3.75 µM ([1]; Well no.=2483): 94.2%
remaining activity at 1.25 µM ([2]; Well no.=2483): 96.3%

Cc1c(-c2ccc(N3CCc4cccc(C(=O)Nc5nc6ccccc6s5)c4C3)nc2C(=O)O)cnn1CC12CC3CC(CC(C3)C1)C2 [A-1331852]
remaining activity at 3.75 µM ([1]; Well no.=6592): 93.5%
remaining activity at 1.25 µM ([2]; Well no.=6592): 102%

O=C1Cc2c([nH]c3ccc(Br)cc23)-c2ccccc2N1 [Kenpaullone]
remaining activity at 3.75 µM ([1]; Well no.=783): 102%
remaining activity at 3.75 µM ([1]; Well no.=2554): 100%
remaining activity at 1.25 µM ([2]; Well no.=783): 102%
remaining activity at 1.25 µM ([2]; Well no.=2554): 104%
